How the values were obtained:
[1] = tested on: Rat superior cervical ganglion neurons; test: Sympathetic neuronal survival assay (no NGF exposure; GAP-43 ELISA and cell counts); format: cell-based; conditions: for Survival, ELISA Data Mean / Survival, Cell Counts Mean: 48 hours; for Survival, ELISA Data Mean: GAP-43 ELISA; for Survival, Cell Counts Mean: immunostained neurons per well
Description: (§1) Activation of c-jun-N-terminal kinase (JNK) has been implicated in apoptosis in sympathetic neurons. An inhibitor of JNK, Example 2, was tested for neuroprotective effects in two models of sympathetic neuronal cell death.
In the first model, ganglia were dissociated and plated directly into culture plates in the presence of compound for 48 hours, then fixed and survival assayed using an ELISA for GAP-43. This model will hereafter be referred to as the ‘survival assay’.
(§2) Ganglia were enzymatically dissociated using 0.25% trypsin for 45 minutes. The trypsin was then inhibited using Dulbecco's MEM (DMEM) supplemented with 10% fetal bovine serum, and the cells mechanically triturated using a pipette tip to form a single cell suspension. Neurons in the suspension were counted using a haemocytometer, and plated at a density of 3000-5000 neurons per well in poly-D-lysine and laminin coated 96 well tissue culture clusters in DMEM supplemented with B27 serum substitute. Cultures were then incubated at 37° C./5% CO2. One hour following plating, cultures were either treated with NGF 25 ng/ml or with L-790,984 at a range of concentrations for the NGF deprivation and survival assays respectively.
(§3) Cultures for the NGF deprivation assay were returned to the incubator for 4 days. Following this, the medium was aspirated, plates washed once with DMEM/B27, and the cultures treated with Example 2 at concentrations ranging from 1 nM to 10 μM, together with an anti-NGF blocking antibody at 250 ng/ml. Cultures were then returned to the incubator for a further 72 hours prior to fixation and survival quantification. Cultures treated with Example 2 immediately for the survival assay were returned to the incubator for 48 hours; cultures were then fixed and survival quantified using the GAP-43 ELISA.
(§4) Cultures were fixed by the addition of an equal volume 4% paraformaldehyde to each well for 10 minutes; this was then aspirated, and replaced by a further volume of 4% paraformaldehyde for a further 20 minutes at room temperature. Plates were then washed three times with PBS/0.3% TX100, and non-specific binding sites blocked by the addition of 5% normal horse serum (NHS) in PBS/0.3% TX100. Plates were incubated at room temperature for one hour, then the blocking serum was aspirated without washing and replaced with primary antibody. The primary antibody used was a mouse monoclonal antibody raised against Growth Associated Protein 43 (Sigma), prepared at a dilution of 1:500 in PBS/0.3% TX100/5% NHS. Primary antibody was added to all sample wells, with four control wells returned to blocking serum to act as minus primary control. Plates were then refrigerated overnight at 4° C. The next day, plates were washed three times with PBS/0.3 TX100 and secondary antibody added. The secondary antibody used was peroxidase conjugated sheep anti-mouse IgG, and was added at a dilution of 1:1000 in PBS/0.3% TX100/5% NHS. Plates were incubated for 1 hour at room temperature, then washed three times with PBS/0.3% TX100, and K-Blue insoluble peroxidase substrate added for 30 minutes at room temperature. The optical density of the plates was then read at 650 nm, and the survival of neurons calculated and expressed as percentage of the control response.
(§5) Cell counts were performed on one sample plate for each model of sympathetic neuronal cell death, by the addition of a tertiary antibody to the plate, followed by avidin-biotin complex and an insoluble peroxidase substrate. Following quantification of optical density, plates were washed three times in PBS/0.3% TX100, and non-specific sites blocked using PBS/0.3% TX100/5% normal rabbit serum (“NRS”). Plates were incubated for one hour at room temperature, then the blocking serum was aspirated and replaced with biotinylated rabbit anti-sheep IgG at a dilution of 1:500 in PBS/0.3% TX10O/5% NRS. […]

[2] = tested on: Rat superior cervical ganglion neurons; test: Sympathetic neuronal NGF deprivation assay (GAP-43 ELISA and cell counts); format: cell-based; conditions: for Survival, Cell Counts Mean / Survival, ELISA Data Mean: 72 hours; for Survival, ELISA Data Mean: GAP-43 ELISA
Description: as §1
In the second model, ganglia were dissociated and plated in the presence of NGF 25 ng/ml for 4 days. The NGF was then removed by washing and application of a blocking antibody, and L-790,984 coadministered for 72 hours. Survival was then assayed using the GAP-43 ELISA. This model will be referred to hereafter as the ‘NGF deprivation assay’.
as §2, §3, §4, §5

JNK3α1 = target: T1, JNK3α1 (Homo sapiens, UniProt P53779); test: Biochemical determination of inhibition of JNK3α1; conditions: truncated JNK3α1, 1 μM ATP, 0.5 μM GST-ATF2, 30° C., 30 min
T1 construct: Truncated JNK3α1 (amino acids 39-422) was expressed in E. coli; made in house; host or cells: E. coli
T1 sequence (P53779 39-422 isoform P53779-2): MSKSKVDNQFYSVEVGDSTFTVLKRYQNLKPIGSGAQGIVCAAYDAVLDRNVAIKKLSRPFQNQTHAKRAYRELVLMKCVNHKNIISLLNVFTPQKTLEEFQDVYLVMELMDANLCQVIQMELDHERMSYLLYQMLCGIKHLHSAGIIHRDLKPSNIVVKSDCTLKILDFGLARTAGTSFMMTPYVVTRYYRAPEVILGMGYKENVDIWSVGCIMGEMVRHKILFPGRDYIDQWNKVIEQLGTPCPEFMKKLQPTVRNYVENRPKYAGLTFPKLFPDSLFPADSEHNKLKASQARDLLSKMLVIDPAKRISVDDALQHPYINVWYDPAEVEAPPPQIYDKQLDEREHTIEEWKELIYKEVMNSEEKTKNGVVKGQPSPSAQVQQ
Description: Activation reactions were incubated at 30° C. for 2 h.
Enzyme inhibition studies were performed at 30° C. for 30 min with 0.5 μM GST-ATF2, 1 μM ATP, 1 nM activated JNK3α1 and compound ranging from 30 pM to 100 μM. Reactions were carried out in 100 μL volumes containing the final concentrations of the following: 25 mM HEPES (Sigma) pH 7.4; 10 mM MgCl2 (Sigma); 2 mM DTT (Sigma); 20 mM β-glycerophosphate (Sigma); 0.1 mM Na3VO4 (Sigma); 2 μCi [γ-^33P]ATP (2000 Ci/mmol; 1 Ci=37 GBq) (Amersham Pharmacia Biotech, Piscataway, N.J.). Reactions were stopped with 100 μL 100 mM EDTA/15 mM sodium pyrophosphate. Immobilon™-P 96-well plates (Millipore MAIPNOB™ 10, available from the Millipore Corp., Bedford, Mass.) were pretreated with 100 μL methanol, followed by 100 μL 15 mM sodium pyrophosphate. Fifty μL of the stopped reaction was spotted in triplicate on the Immobilon™-P 96-well plate. The samples were vacuum-filtered and washed three times each with 100 μL 75 mM H3PO4 to remove unincorporated [γ-^33P]ATP. After the third H3PO4 wash and a final filtration step to remove H3PO4, 50 μL of Microscint™-20 (Packard BioScience Ltd., Pangbourne, Berkshire, U.K.) was added to each well and samples were analyzed on a Packard Topcount™ liquid scintillation counter. IC50 values were determined by fitting the data to the equation for a four parameter logistic.

For `CCCn1c(C2CCN(C)CC2)nc(-c2ccc(Cl)c(Cl)c2)c1-c1ccnc(NC2CC2)n1` [Example 2, Cyclopropyl-{4-[5-(3,4-dichlorophenyl)-2-[(1-methyl)-piperidin]-4-yl-3-propyl-3H-imidazol-4-yl]-pyrimidin-2-yl}amine], the “Survival, ELISA Data Mean” value ([1]; 0.01 μM) was 112.10, the “Survival, Cell Counts Mean” value ([1]; 0.01 μM) was 115.50 and the “Survival, ELISA Data Mean” value ([1]; 0.03 μM) was 99.19. The “Survival, Cell Counts Mean” value ([1]; 0.03 μM) was 127.25, the “Survival, ELISA Data Mean” value ([1]; 0.1 μM) was 131.45 and the “Survival, Cell Counts Mean” value ([1]; 0.1 μM) was 170.50. The “Survival, ELISA Data Mean” value ([1]; 0.3 μM) was 209.68, the “Survival, Cell Counts Mean” value ([1]; 0.3 μM) was 267.50 and the “Survival, ELISA Data Mean” value ([1]; 1 μM) was 350.81. The “Survival, Cell Counts Mean” value ([1]; 1 μM) was 363.00, the “Survival, ELISA Data Mean” value ([1]; 3 μM) was 270.16 and the “Survival, Cell Counts Mean” value ([1]; 3 μM) was 321.00. For the same molecule, the “Concentrations at which the survival response declines” value ([1]; data not shown) was “above 3 μM”, the “Concentrations at which the survival response was significant” value ([1]; quantified by ELISA) was no less than 300 nM and the “Survival, Cell Counts Mean” value ([2]; 0.001 μM + anti-NGF 250 ng/ml) was 82.00. The “Survival, ELISA Data Mean” value ([2]; 0.001 μM + anti-NGF 250 ng/ml) was 35.44, the “Survival, Cell Counts Mean” value ([2]; 0.01 μM + anti-NGF 250 ng/ml) was 81.00 and the “Survival, ELISA Data Mean” value ([2]; 0.01 μM + anti-NGF 250 ng/ml) was 28.20. The “Survival, Cell Counts Mean” value ([2]; 0.1 μM + anti-NGF 250 ng/ml) was 53.75, the “Survival, ELISA Data Mean” value ([2]; 0.1 μM + anti-NGF 250 ng/ml) was 22.89 and the “Survival, Cell Counts Mean” value ([2]; 0.5 μM + anti-NGF 250 ng/ml) was 140.25. The “Survival, ELISA Data Mean” value ([2]; 0.5 μM + anti-NGF 250 ng/ml) was 60.15, the “Survival, Cell Counts Mean” value ([2]; 1 μM + anti-NGF 250 ng/ml) was 200.00 and the “Survival, ELISA Data Mean” value ([2]; 1 μM + anti-NGF 250 ng/ml) was 102.79. The “Concentrations at which the survival response was significant” value ([2]; measured by ELISA) was no less than 500 nM, the “Concentrations at which the survival response was significant” value ([2]; measured by cell counts) was no less than 500 nM and the IC50 (JNK3α1) was 7 nM.

Reference: patent US20020032183A1, “Use of (di-substituted-phenyl)-pyrimidinyl-imidazole derivatives as JNK-inhibitors” (priority 2000, published 2002)
